# Test results from PMC10692721, “Drug discovery for heart failure targeting myosin-binding protein C” (The Journal of Biological Chemistry, 2023).
# “Also recorded” adds a separate entry of the source. *1 amine or outer side, *2 acyl side, *3 side chain or, on linkers, in order; H or OH if unused. Where a SMILES comes first, the peptide text is derived from it. Bridges are numbered along the chain shown (N, C = ends). [ ]: non-standard residue; d: D form. The star is where a group is joined. Orn(4R-OH,5R-OH) = O=C([C@H](C[C@@H](O)[C@@H](O)N[*:3])N[*:1])[*:2]; Tetradecanoyl(10R,12S-Me2) = CC[C@H](C)C[C@H](C)CCCCCCCCC(=O)*; hTyr(3S-OH,4S-OH) = N[C@H](C(=O)O)[C@H](O)[C@@H](O)c1ccc(O)cc1; Gln(3R-OH) = NC(=O)C[C@@H](O)[C@H](N)C(=O)O; Pro(3S-OH) = O=C(O)[C@H]1NCC[C@@H]1O; Hyp = O=C(O)[C@@H]1C[C@@H](O)CN1
# Tests used:
# TMR-cC0-C2 = test: Selleck library HTS, 532 nm excitation (FLT of TMR-cC0-C2 in presence of FMAL-actin); format: binding, human
# [1] = test system: TMR-cC0-C2 (C0-C2 fragment of human cMyBP-C); test: FLT-TMR concentration-response assay (FLT of TMR on cC0-C2, no actin); format: binding; details: 60 μM compound
# In short: (§1)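 Hits tested at eight concentrations (0.5–100 μM) and read on a high-throughput fluorescence lifetime plate reader. Hill fits applied only under certain conditions.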
# [2] = test system: rabbit fast skeletal (psoas) myofibrils; test: Skeletal myofibril ATPase assay; format: biochemical; details: 50 μM compound, pCa 8 to pCa 4
# Method: Rabbit psoas and bovine cardiac myofibrils were prepared as described in our previous study ([17]). An enzyme-coupled, NADH-linked ATPase assay was used to measure skeletal and cardiac myofibril ATPase activity in 96-well microplates at 23 °C. Ionic strength was maintained below 0.2 M, so myofilaments remained insoluble and stable ([32]). To achieve optimal enzymatic activities, buffers for skeletal and cardiac myofibrils differed slightly ([33], [34]): skeletal in 50 mM MOPS, 100 mM KCl, 5 mM MgCl2, 1 mM EGTA, pH 7.0; cardiac in 20 mM MOPS, 35 mM NaCl, 5 mM MgCl2, 1 mM EGTA, pH 7.0. Each well in the microplate contained an assay mix of 0.84 mM phosphoenolpyruvate, 0.17 mM NADH, 10 U/vol pyruvate kinase, 20 U/vol lactate dehydrogenase. The concentration of free Ca^2+ was controlled by EGTA buffering ([35]). Myofibrils were dispensed in microplates with a multichannel pipette and were incubated with assay mix plus compound of interest for 20 min at 23 °C. The concentration of myofibrils used was 0.01 mg/ml for skeletal and 0.05 mg/ml for cardiac myofibrils. The assay was started upon the addition of ATP, at a final concentration of 2.1 mM (total volume to 200 μl), and absorbance was recorded at 340 nm in a SpectraMax Plus microplate spectrophotometer from Molecular Devices. The steady-state myofibrillar ATPase rate was measured from NADH oxidation, measured as the rate of decrease in absorption at 340 nm for 30 min, with absorption data collected every 15 s. All data and statistical analysis of steady-state kinetics were conducted with the OriginPro program. The results were fitted with the Hill equation:(6) V=V0+(Vmax/1+10^−n∗^(pCa50−pCa)) where V is the ATPase rate and n is the Hill coefficient.
# ATPase activity is reported on the μmol ATP/mg protein/min scale. Average data are presented as mean ± SD. Sample means are derived from three different myofibril preps (N = 3), each done in duplicate (n = 6).
# The effects of compounds on ATPase activity of myofibrils were determined in the presence of 50 μM compound, across a 12-point pCa range from 4.0 (activation) to 8.0 (relaxation). The calcium sensitivity (pCa50) was determined by fitting the curves to the Hill equation. In all experiments, a 1% DMSO-only control was included. The normalized ATPase activity of the selected compounds can be found in Figure 6.
# [3] = test system: FMAL-actin/TMR-fC1-C2 interaction; test: FLT-FRET concentration-response assay, FMAL-actin plus TMR-fC1-C2; format: binding
# In short: as §1
# [4] = test system: TMR-fC1-C2 (C1-C2 of fast skeletal MyBP-C); test: FLT-TMR concentration-response assay, fC1-C2; format: binding; details: 60 μM compound
# In short: as §1
# [5] = test system: FMAL-actin plus TMR-cC0-C2; test: Selleck library HTS, 473 nm excitation (FLT of FMAL-actin with TMR-cC0-C2, FLT-FRET); format: binding, human
# In short: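 Donor fluorescence lifetime was then recorded. Waveforms were fit to a single exponential, and ΔFLT was obtained after a moving-median plate-gradient correction (half-row window), rescaled by the median DMSO lifetime.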
# [6] = test system: FMAL-actin/TMR-cC0-C2 interaction; test: FLT-FRET concentration-response assay, FMAL-actin plus TMR-cC0-C2; format: binding, human; details: unphosphorylated cC0-C2
# In short: as §1
# [7] = test system: FMAL-actin/PKA-phosphorylated TMR-cC0-C2 interaction; test: FLT-FRET concentration-response assay, FMAL-actin plus PKA-phosphorylated TMR-cC0-C2; format: binding, human; details: phosphorylated cC0-C2
# Method: Compounds identified as initial hits were further examined to determine the concentration–response curves for seven conditions ([1]): FMAL-actin alone identified actin-binding compounds that alter the FLT of FMAL-actin ([2]).
# Fluorescence lifetime (FLT) measurements were acquired using a high-throughput FLT plate reader (Fluorescence Innovations, Inc) ([14], [27]), provided by Photonic Pharma LLC. […] The observed waveforms were analyzed as described previously ([15], [28]).
# The primary hits were dissolved in DMSO to make a 10 mM stock solution, which was serially diluted in 96-well mother plates. Hits were screened at eight concentrations (0.5–100 μM). […] Compounds (1 μl) were transferred from the mother plates into 384-well plates using a Mosquito HV liquid handler (TTP Labtech Ltd, Hertfordshire, UK). The same procedure of dispensing as for the pilot screening was applied in the concentration-response assays. Concentration dependence of the FLT-FRET (E/EDMSO) or FLT-TMR (Δτ) change data was fit to a Hill equation only under certain conditions to help guide the eye (Fig. 4).
# [8] = robust z-score, hit threshold ±4, 30 μM compound
structure (smiles),measurement,setting,value
"CC[C@H](C)C[C@H](C)CCCCCCCCC(=O)N[C@H]1C[C@@H](O)[C@@H](O)NC(=O)[C@@H]2[C@@H](O)CCN2C(=O)[C@H]([C@H](O)CC(N)=O)NC(=O)[C@H]([C@H](O)[C@@H](O)c2ccc(O)cc2)NC(=O)[C@@H]2C[C@@H](O)CN2C(=O)[C@H]([C@@H](C)O)NC1=O [Pneumocandin B0] ({Tetradecanoyl(10R,12S-Me2)}-[Orn(4R-OH,5R-OH)]T[Hyp][hTyr(3S-OH,4S-OH)][Gln(3R-OH)][Pro(3S-OH)]; lactam 1-C)","532-nm Δτ, Repeat 1","TMR-cC0-C2; initial screen, 30 μM compound",0.179 ns
same,"532-nm Δτ, Repeat 2","TMR-cC0-C2; initial screen, 30 μM compound",0.149 ns
same,532-nm z-score (based on avg Δτ),TMR-cC0-C2; [8],10.04
same,cC0-C2/cC0-C2#P (ratio of FLT changes),[1],0.9
same,"cC0-C2 FLT change (% change from DMSO, FLT of TMR-MyBP-C)",[1],12.4%
same,effect on skeletal MF ATPase activity (in words),[2],inhibitory effect; also recorded: affected ATPase
same,effect on FLT-FRET / binding between FMAL-actin and TMR-fC1-C2 (in words),[3],increased the binding
same,increase in actin binding (fC1-C2-actin FRET),[3]; skeletal MyBP-C,24%
same,cC0-C2/fC1-C2 (ratio of FLT changes),[4],1.1
same,"fC1-C2 FLT change (% change from DMSO, FLT of TMR-MyBP-C)",[4],11.4%
same,"473-nm Δτ, Repeat 1","[5]; initial screen, 30 μM compound",-0.050 ns
same,"473-nm Δτ, Repeat 2","[5]; initial screen, 30 μM compound",-0.053 ns
same,473-nm z-score (based on avg Δτ),[5]; [8],-2.83
same,effect on FLT-FRET / binding between FMAL-actin and TMR-cC0-C2 (in words),[6],increased the binding
same,effect on FLT-FRET / binding between FMAL-actin and PKA-phosphorylated TMR-cC0-C2 (in words),[7],decreasing the binding
